What was measured:
Format in all cases: in vivo
[1] = tested on: Cotton Aphid (Aphis gossypii); assay: Insecticidal test for cotton aphid, spray on infested squash cotyledons; conditions: 50 ppm spray, 3 days
Outline: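 Squash cotyledons were infested with all aphid life stages 16–20 h beforehand, then sprayed on both sides to runoff with 50 ppm compound (acetone:ethanol, 0.05% Tween 20). After 3 days at 26 °C and 40% RH, aphids were counted under a microscope, and percent control is population reduction versus untreated.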

[2] = tested on: Sweetpotato Whitefly (Bemisia tabacia); assay: Insecticidal test for sweetpotato whitefly, spray on cotton plants; design: key: A: 90–100; B: 80–89; C: 70–79; D: 60–69; E: 50–59; F: less than 50; G: Inactive; conditions: 200 ppm spray, 13 days, large nymphs
Outline: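 Five-week cotton plants trimmed to two leaves carried 2 days of whitefly oviposition, then adults were removed. Leaves were sprayed top and bottom with 200 ppm compound in water with 0.05% Tween 20 (acetone:ethanol co-solvent), four replicates. After 13 days at 28° C/60% RH, 3rd–4th instar nymphs were counted; percent control versus solvent-only sprayed plants.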

[3] = tested on: Tobacco Budworm (Heliothis virescens); assay: Insecticidal test for tobacco budworm, treated cotton cotyledon leaf disc; design: key: A: 90–100; B: 80–89; C: 70–79; D: 60–69; E: 50–59; F: less than 50; G: Inactive; conditions: cotton cotyledon leaf-dip, 2nd instar larvae, 5 days
[4] = tested on: Beet Armyworm (Spodoptera exigua); assay: Insecticidal test for beet armyworm, treated lepidopteran diet; design: key: A: 90–100; B: 80–89; C: 70–79; D: 60–69; E: 50–59; F: less than 50; G: Inactive; conditions: on diet surface, second-instar larvae, 5 days
Outline: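 Test compound formulated at 400 ppm in 2:1 acetone:tap water; 250 μL applied onto surface of modified Shorey lepidopteran diet, five cups per compound (one cup = one replicate). After solvent air-dried, one second-instar larva placed on treated diet per cup.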

[5] = tested on: Two-spotted Spider Mite (Tetranychus urticae); assay: Insecticidal test for two-spotted spider mite, ovicide method; design: key: A: 90–100; B: 80–89; C: 70–79; D: 60–69; E: 50–59; F: less than 50; G: Inactive; conditions: cotton leaf discs, 6 days
Outline: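 Cotton leaf discs (eight, 2.2 cm each) received ten adult female two-spotted spider mites, which laid eggs for 24 hours before being taken off. The discs were then set on an agar substrate and kept at 24° C. and 90% RH for 6 days to assess ovicidal control.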

[6] = tested on: Cabbage Looper (Trichoplusia ni); assay: Insecticidal test for cabbage looper, treated cabbage leaf disc; conditions: cabbage leaf-dip, 2nd instar larvae, 5 days

Compound | CA: activity at 50 ppm against cotton aphid (% control rating) [1] | WF: activity at 200 ppm against whitefly (% control rating) [2] | TBW: activity at 400 ppm against tobacco budworm (% control rating) [3] | BAW: activity at 400 ppm against beet armyworm (% control rating) [4] | SM: activity against two-spotted spider mite (% control rating) [5] | CL: activity at 400 ppm against cabbage looper (% control rating) [6]
Cn1nc(-c2c(F)cccc2Cl)nc1-c1sc(-c2ccc(Br)cc2)cc1Cl | B (80–89) | G | A (90–100) | A (90–100) | A (90–100) | A (90–100)
Cc1cc(-c2cccc(OC(F)(F)F)c2)sc1-c1nc(-c2c(F)cccc2Cl)nn1C | B (80–89) | F (less than 50) | G | G | A (90–100) | A (90–100)
Cn1nc(-c2c(F)cccc2Cl)nc1-c1cc(-c2cccc(OC(F)(F)F)c2)sc1Cl | A (90–100) | G | G | G | A (90–100) | A (90–100)
Cn1nc(-c2c(F)cccc2Cl)nc1-c1csc(-c2ccc(Cl)cc2F)c1 | B (80–89) | F (less than 50) | F (less than 50) | G | A (90–100) | A (90–100)
Cn1nc(-c2c(F)cccc2Cl)nc1-c1sc(-c2ccc(Br)cc2)c(Cl)c1Cl | C (70–79) | E (50–59) | G | A (90–100) | G | A (90–100)
Cc1cc(-c2ccc3c(c2)COC3)sc1-c1nc(-c2c(F)cccc2Cl)nn1C | D (60–69) | G | G | B (80–89) | C (70–79) | A (90–100)
Cn1nc(-c2c(F)cccc2Cl)nc1-c1csc(-c2ccc(C(F)(F)F)cc2F)c1 | C (70–79) | F (less than 50) | D (60–69) | A (90–100) | C (70–79) | A (90–100)
Cn1nc(-c2c(F)cccc2Cl)nc1-c1cc(-c2ccc(C(F)(F)F)cc2F)sc1Cl | F (less than 50) | F (less than 50) | F (less than 50) | A (90–100) | G | A (90–100)

— patent US7056940B2, “Insecticidal 3-(2,6-disubstituted phenyl)-5-[5-arylthien-2-yl]-1,2,4-triazoles” (Dow AgroSciences LLC, priority 2001, dated 2006)
